# Where two headings read alike, the source gives them in different places. Starred links: 1 amine or outer side, 2 acyl side, 3 side chain; linkers in the order of their positions; H or OH if unused. Non-standard residues stand in square brackets, D forms with d. Groups on a side chain read outwards from the residue. *: point of attachment. C20 diacid = O=C(O)CCCCCCCCCCCCCCCCCCC(=O)*; C18 diacid = O=C(O)CCCCCCCCCCCCCCCCC(=O)*; γGlu = O=C(O)[C@H](CCC(=O)[*:2])N[*:1]; εLys = N[C@@H](CCCCN[*:1])C(=O)[*:2]; AEEA = NCCOCCOCC(=O)O; Aib = CC(C)(N)C(=O)O
# What was measured:
# Assay type in all cases: cell-based
# Settings in all cases: CreLuc reporter gene assay
# [1] = biological target: T1, hNPY2R (Homo sapiens, UniProt P49146); assay: hNPY2R CreLuc reporter gene assay in 0.5% and 100% plasma
# T1 construct: expressed in transfected cells; host or cells: HEK-293 cells carrying a CRE-luciferase reporter gene
# T1 sequence (P49146 1-381): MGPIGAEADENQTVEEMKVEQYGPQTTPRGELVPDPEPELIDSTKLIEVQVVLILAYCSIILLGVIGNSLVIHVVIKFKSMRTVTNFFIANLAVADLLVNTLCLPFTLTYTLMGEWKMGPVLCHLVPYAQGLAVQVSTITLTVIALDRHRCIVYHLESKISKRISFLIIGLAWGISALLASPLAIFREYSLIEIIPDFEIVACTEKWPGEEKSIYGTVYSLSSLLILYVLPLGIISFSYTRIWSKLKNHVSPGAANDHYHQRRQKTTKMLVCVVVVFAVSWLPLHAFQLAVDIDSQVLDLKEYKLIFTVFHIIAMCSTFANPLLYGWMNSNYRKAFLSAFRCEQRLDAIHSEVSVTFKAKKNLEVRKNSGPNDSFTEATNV
# In short: (§1)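 HEK cells (GLP-1R, NPY2R) or CHO cells (GIPR) carrying a CRE-luciferase reporter, incubated 4 h at 37 °C with peptides in HBSS/20 mM HEPES pH 7.4 plus 0.5% human plasma, or in 100% plasma. Luminescence read; EC50 from 8-point variable-slope sigmoid fits.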
# [2] = biological target: T2, hGIPR (Homo sapiens, UniProt P48546); assay: hGIPR CreLuc reporter gene assay in 0.5% and 100% plasma
# T2 construct: expressed in transfected cells; host or cells: CHO cells carrying a CRE-luciferase reporter gene
# T2 sequence (P48546 22-466): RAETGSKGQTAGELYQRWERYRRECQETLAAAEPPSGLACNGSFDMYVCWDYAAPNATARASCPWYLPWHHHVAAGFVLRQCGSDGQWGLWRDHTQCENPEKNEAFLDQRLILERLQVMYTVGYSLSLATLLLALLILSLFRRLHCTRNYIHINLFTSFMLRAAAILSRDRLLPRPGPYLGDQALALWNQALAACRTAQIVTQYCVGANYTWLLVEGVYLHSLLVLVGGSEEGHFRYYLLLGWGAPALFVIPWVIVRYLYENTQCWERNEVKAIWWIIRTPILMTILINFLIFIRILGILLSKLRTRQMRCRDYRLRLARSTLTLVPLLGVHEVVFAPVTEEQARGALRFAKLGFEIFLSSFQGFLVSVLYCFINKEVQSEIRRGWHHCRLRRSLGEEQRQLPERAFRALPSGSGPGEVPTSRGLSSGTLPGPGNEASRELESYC
# In short: as §1
# [3] = biological target: T3, hGLP1R (Homo sapiens, UniProt P43220); assay: hGLP1R CreLuc reporter gene assay in 0.5% and 100% plasma
# T3 construct: expressed in transfected cells; host or cells: HEK-293 cells carrying a CRE-luciferase reporter gene
# T3 sequence (P43220 24-463): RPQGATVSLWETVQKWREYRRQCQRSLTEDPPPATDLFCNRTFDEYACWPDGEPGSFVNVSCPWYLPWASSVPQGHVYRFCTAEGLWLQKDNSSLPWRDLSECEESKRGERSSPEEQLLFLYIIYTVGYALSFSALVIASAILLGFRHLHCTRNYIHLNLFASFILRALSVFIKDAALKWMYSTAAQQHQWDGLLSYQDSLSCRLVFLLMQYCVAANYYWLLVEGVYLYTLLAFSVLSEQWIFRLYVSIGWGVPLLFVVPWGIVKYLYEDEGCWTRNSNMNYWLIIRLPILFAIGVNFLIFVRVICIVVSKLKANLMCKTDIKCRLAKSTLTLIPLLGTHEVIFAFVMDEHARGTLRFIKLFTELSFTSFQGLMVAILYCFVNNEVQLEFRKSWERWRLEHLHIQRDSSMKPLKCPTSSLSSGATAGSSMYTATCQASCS
# In short: as §1
# [4] = 0.5% human plasma, read-out: hNPY2R 0.5% hP
# [5] = 0.5% human plasma, read-out: hGIPR 0.5% hP
# [6] = 100% human plasma, read-out: hGIPR 100% hP
# [7] = 0.5% human plasma, read-out: hGLP1R 0.5% hP
# [8] = 100% human plasma, read-out: hGLP1R 100% hP
# [9] = 100% human plasma, read-out: hNPY2R 100% hP
Molecule,"EC50 [1, 4] [nM]","EC50 [2, 5] [nM]","EC50 [2, 6] [nM]","EC50 [3, 7] [nM]","EC50 [3, 8] [nM]","EC50 [1, 9] [nM]"
"H-Y[Aib]EGTFTSDYSI[Aib]LEKQAQ[Aib]AFVQWLIK([AEEA-AEEA-γGlu-γGlu-γGlu-γGlu-C18 diacid])GGPESGASLRHYYNWLTRQRY-NH2 [Compound 58, Y-Aib-E-G-T-F-T-S-D-Y-S-I-Aib-L-E-K-Q-A-Q-Aib-A-F-V-Q-W-L-I-K(1,3)-GGPESGASLRHYYNWLTRQRY-NH2.C18DA-gGlu-gGlu-gGlu-gGlu-OEG-OEG(1,2)]",10.2,0.24,0.31,0.05,2,
"H-Y[Aib]EGTFTSDYSI[Aib]LEKQAQ[Aib]AFVQWLIK([εLys-γGlu-γGlu-γGlu-γGlu-γGlu-γGlu-C20 diacid])GGPEEGASLRHYYNWLTRQRY-NH2 [Compound 89, Y-Aib-E-G-T-F-T-S-D-Y-S-I-Aib-L-E-K-Q-A-Q-Aib-A-F-V-Q-W-L-I-K(1,3)-GGPEEGASLRHYYNWLTRQRY-NH2.C20DA-gGlu-gGlu-gGlu-gGlu-gGlu-gGlu-eLys(1,2)]",14.8,1.01,,0.25,,
"H-Y[Aib]EGTFTSDYSI[Aib]LEEQAQ[Aib]AFVEWLIK([εLys-AEEA-AEEA-γGlu-γGlu-γGlu-γGlu-C20 diacid])GGPSSGASLRHYYNWLTRQRY-NH2 [Compound 100, Y-Aib-E-G-T-F-T-S-D-Y-S-I-Aib-L-E-E-Q-A-Q-Aib-A-F-V-E-W-L-I-K(1,3)-GGPSSGASLRHYYNWLTRQRY-NH2.C20DA-gGlu-gGlu-glu-gGlu-OEG-OEG-eLys(1,2)]",11.2,0.1,0.87,0.12,2.21,
"H-Y[Aib]EGTFTSDYSI[Aib]LEKQAQ[Aib]AFVEWLIK([εLys-γGlu-γGlu-γGlu-γGlu-γGlu-γGlu-C20 diacid])GGPSSPESLRHYYNWLTRQRY-NH2 [Compound 73, Y-Aib-E-G-T-F-T-S-D-Y-S-I-Aib-L-E-K-Q-A-Q-Aib-A-F-V-E-W-L-I-K(1,3)-GGPSSPESLRHYYNWLTRQRY-NH2.C20DA-gGlu-gGlu-gGlu-gGlu-gGlu-gGlu-eLys(1,2)]",,0.11,1.61,0.19,4.76,107
"CC[C@H](C)[C@H](NC(=O)[C@H](CC(C)C)NC(=O)[C@H](Cc1c[nH]c2ccccc12)NC(=O)[C@H](CCC(=O)O)NC(=O)[C@@H](NC(=O)[C@H](Cc1ccccc1)NC(=O)[C@H](C)NC(=O)C(C)(C)NC(=O)[C@H](CCC(N)=O)NC(=O)[C@H](C)NC(=O)[C@H](CCC(N)=O)NC(=O)[C@H](CCCCN)NC(=O)[C@H](CCC(=O)O)NC(=O)[C@H](CC(C)C)NC(=O)C(C)(C)NC(=O)[C@@H](NC(=O)[C@H](CO)NC(=O)[C@H](Cc1ccc(O)cc1)NC(=O)[C@H](CC(=O)O)NC(=O)[C@H](CO)NC(=O)[C@@H](NC(=O)[C@H](Cc1ccccc1)NC(=O)[C@@H](NC(=O)CNC(=O)[C@H](CCC(=O)O)NC(=O)C(C)(C)NC(=O)[C@@H](N)Cc1ccc(O)cc1)[C@@H](C)O)[C@@H](C)O)[C@@H](C)CC)C(C)C)C(=O)N[C@@H](CCCCNC(=O)[C@@H](N)CCCCNC(=O)CC[C@H](NC(=O)CC[C@H](NC(=O)CC[C@H](NC(=O)CC[C@H](NC(=O)CC[C@H](NC(=O)CC[C@H](NC(=O)CCCCCCCCCCCCCCCCCCC(=O)O)C(=O)O)C(=O)O)C(=O)O)C(=O)O)C(=O)O)C(=O)O)C(=O)NCC(=O)NCC(=O)N1CCC[C@H]1C(=O)N[C@@H](CO)C(=O)N[C@@H](CCC(=O)O)C(=O)NCC(=O)N[C@@H](CCC(=O)O)C(=O)N[C@@H](CO)C(=O)N[C@@H](CC(C)C)C(=O)N[C@@H](CCCNC(=N)N)C(=O)N[C@@H](Cc1c[nH]cn1)C(=O)N[C@@H](Cc1ccc(O)cc1)C(=O)N[C@@H](Cc1ccc(O)cc1)C(=O)N[C@@H](CC(N)=O)C(=O)N[C@@H](Cc1c[nH]c2ccccc12)C(=O)N[C@@H](CC(C)C)C(=O)N[C@H](C(=O)N[C@@H](CCCNC(=N)N)C(=O)N[C@@H](CCC(N)=O)C(=O)N[C@@H](CCCNC(=N)N)C(=O)N[C@@H](Cc1ccc(O)cc1)C(N)=O)[C@@H](C)O [Compound 237, Y-Aib-E-G-T-F-T-S-D-Y-S-I-Aib-L-E-K-Q-A-Q-Aib-A-F-V-E-W-L-I-K(1,3)-GGPSEGESLRHYYNWLTRQRY-NH2.C20DA-gGlu-gGlu-gGlu-gGlu-gGlu-gGlu-eLys(1,2)]",18,0.1,1.17,0.26,3.11,
"H-Y[Aib]EGTFTSDYSI[Aib]LEKQAQ[Aib]AFVEWLIK([εLys-γGlu-γGlu-γGlu-γGlu-γGlu-γGlu-C20 diacid])GGPSSGVSLRHYYNWLTRQRY-NH2 [Compound 96, Y-Aib-E-G-T-F-T-S-D-Y-S-I-Aib-L-E-K-Q-A-Q-Aib-A-F-V-E-W-L-I-K(1,3)-GGPSSGVSLRHYYNWLTRQRY-NH2.C20DA-gGlu-gGlu-gGlu-gGlu-gGlu-gGlu-eLys(1,2)]",,0.19,1.07,0.14,2.12,44.8
"H-Y[Aib]EGTFTSDYSI[Aib]LEKQAQ[Aib]AFVEWLIK([εLys-γGlu-γGlu-γGlu-γGlu-γGlu-γGlu-C20 diacid])GGPSSGLSLRHYYNWLTRQRY-NH2 [Compound 107, Y-Aib-E-G-T-F-T-S-D-Y-S-I-Aib-L-E-K-Q-A-Q-Aib-A-F-V-E-W-L-I-K(1,3)-GGPSSGLSLRHYYNWLTRQRY-NH2.C20DA-gGlu-gGlu-gGlu-gGlu-gGlu-gGlu-eLys(1,2)]",16.7,0.27,,0.13,,58.5
"H-Y[Aib]EGTFTSDYSI[Aib]LEKQAQ[Aib]AFVEWLIK([εLys-γGlu-γGlu-γGlu-γGlu-γGlu-γGlu-C20 diacid])GGPSSGASLRHYYNL[Aib]TRQRY-NH2 [Compound 79, Y-Aib-E-G-T-F-T-S-D-Y-S-I-Aib-L-E-K-Q-A-Q-Aib-A-F-V-E-W-L-I-K(1,3)-G-G-P-S-S-G-A-S-L-R-H-Y-Y-N-L-Aib-T-R-Q-R-Y-NH2.C20DA-gGlu-gGlu-gGlu-gGlu-gGlu-gGlu-eLys(1,2)]",87.6,0.29,1.86,0.11,,
"H-Y[Aib]EGTFTSDYSI[Aib]LEKQAQ[Aib]AFVQWLIK([εLys-γGlu-γGlu-γGlu-γGlu-γGlu-C18 diacid])GGPSEPASLRHYYNWLTRQRY-NH2 [Compound 148, Y-Aib-E-G-T-F-T-S-D-Y-S-I-Aib-L-E-K-Q-A-Q-Aib-A-F-V-Q-W-L-I-K(1,3)-GGPSEPASLRHYYNWLTRQRY-NH2.C18DA-gGlu-gGlu-gGlu-gGlu-gGlu-eLys(1,2)]",11,0.07,,0.08,,21
"H-Y[Aib]EGTFTSDYSI[Aib]LEKQAQ[Aib]AFVQWLIK([AEEA-AEEA-γGlu-γGlu-γGlu-γGlu-γGlu-C18 diacid])GGPSEGASLRHYYNWLTRQRY-NH2 [Compound 246, Y-Aib-E-G-T-F-T-S-D-Y-S-I-Aib-L-E-K-Q-A-Q-Aib-A-F-V-Q-W-L-I-K(1,3)-GGPSEGASLRHYYNWLTRQRY-NH2.C18DA-gGlu-gGlu-gGlu-gGlu-gGlu-OEG-OEG(1,2)]",12.8,0.16,0.95,0.11,,28.2

# From patent publication US20240247080A1, “GLP1/GIP/NPY2 RECEPTOR TRIPLE AGONISTS” (Boehringer Ingelheim International GmbH, priority 2022, published 2024)
